This passage reports IC50 results from BindingDB's records for doi:10.1111/cbdd.12330 (Institute of Experimental Botany Ascr and Palacky University, 2014).

Experiment in all cases: Kinase Selectivity
The target in assay [1] is Cyclin-dependent kinase 1 (Homo sapiens, UniProt P06493). The method, then: (§1) Cyclin-dependent kinase selectivity was evaluated using CDK1-cyclin B, CDK2-cyclin E, CDK4-cyclin D1, CDK7-cyclin H, and CDK9-cyclin T1.
Assay [2] concerns the target Cyclin-dependent kinase 9 (Homo sapiens, UniProt P50750). The method, then: as §1
In assay [3] the target is Cyclin-dependent kinase 4 (Homo sapiens, UniProt P11802). The method, then: as §1
Assay [4] has as its target Cyclin-dependent kinase 7 (Homo sapiens, UniProt P50613). The method, then:
as §1

In assay [5] the target is Cyclin-dependent kinase 2 (Homo sapiens, UniProt P24941). Here is the method:
as §1

Molecules are shown by their SMILES.

Sequence of Cyclin-dependent kinase 7 (P50613 whole entry): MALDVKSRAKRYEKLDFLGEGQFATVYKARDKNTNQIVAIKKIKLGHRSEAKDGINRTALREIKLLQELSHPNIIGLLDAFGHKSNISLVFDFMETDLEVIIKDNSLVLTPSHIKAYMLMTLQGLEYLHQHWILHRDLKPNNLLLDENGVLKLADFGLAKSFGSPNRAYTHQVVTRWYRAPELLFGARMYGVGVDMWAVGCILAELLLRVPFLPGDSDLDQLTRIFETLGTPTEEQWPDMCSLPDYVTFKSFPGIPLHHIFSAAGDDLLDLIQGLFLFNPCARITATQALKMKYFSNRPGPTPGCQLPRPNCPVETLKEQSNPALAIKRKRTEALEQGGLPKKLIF
Sequence of Cyclin-dependent kinase 1 (P06493 whole entry): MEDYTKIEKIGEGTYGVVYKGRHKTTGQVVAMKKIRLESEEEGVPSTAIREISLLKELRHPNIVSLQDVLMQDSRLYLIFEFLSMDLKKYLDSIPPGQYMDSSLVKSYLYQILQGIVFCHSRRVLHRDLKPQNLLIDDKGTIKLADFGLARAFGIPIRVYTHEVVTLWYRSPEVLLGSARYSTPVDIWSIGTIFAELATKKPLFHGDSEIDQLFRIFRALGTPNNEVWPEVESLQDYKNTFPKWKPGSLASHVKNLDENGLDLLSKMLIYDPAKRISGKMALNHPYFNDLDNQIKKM
Sequence of Cyclin-dependent kinase 4 (P11802 whole entry): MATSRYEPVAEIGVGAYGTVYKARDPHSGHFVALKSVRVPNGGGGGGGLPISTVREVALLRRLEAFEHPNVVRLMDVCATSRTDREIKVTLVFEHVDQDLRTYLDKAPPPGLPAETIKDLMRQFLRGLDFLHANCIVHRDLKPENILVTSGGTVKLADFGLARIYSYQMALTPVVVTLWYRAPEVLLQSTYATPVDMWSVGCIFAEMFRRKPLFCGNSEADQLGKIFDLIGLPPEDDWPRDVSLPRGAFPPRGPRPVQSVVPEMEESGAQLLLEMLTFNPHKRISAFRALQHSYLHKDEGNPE
Sequence of Cyclin-dependent kinase 9 (P50750 whole entry): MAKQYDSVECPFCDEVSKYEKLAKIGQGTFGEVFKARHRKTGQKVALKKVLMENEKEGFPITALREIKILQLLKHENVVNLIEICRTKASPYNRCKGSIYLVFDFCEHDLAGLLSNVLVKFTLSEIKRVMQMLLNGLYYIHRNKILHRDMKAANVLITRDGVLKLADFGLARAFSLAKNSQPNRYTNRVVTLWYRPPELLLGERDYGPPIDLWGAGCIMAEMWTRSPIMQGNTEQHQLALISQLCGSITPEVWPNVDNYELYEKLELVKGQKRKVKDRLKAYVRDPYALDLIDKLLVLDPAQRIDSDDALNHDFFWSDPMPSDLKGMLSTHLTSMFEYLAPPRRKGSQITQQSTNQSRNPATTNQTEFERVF

As for `Nc1n[nH]c(N)c1/N=N/c1ccncc1` [AAP1742], the IC50 (in general, the concentration that gives 50% inhibition) was 1330 nM in assay [1]; 280 nM in assay [2]; 454 nM in assay [3]; 14900 nM in assay [4]; 549 nM in assay [5].
